According to US20160281050A1, “METHODS FOR TREATING A CULTURE OF HAEMATOCOCCUS PLUVIALIS FOR CONTAMINATION USING SALT AND HYDROGEN PEROXIDE” (HELIAE DEVELOPMENT LLC, priority 2015, published 2016):

Tested on: Haematococcus pluvialis (Strain 2)
Assay: % cell lysis, culture dry weight and % carotenoid by UV method in 230 L reactors, salt treatment (Example 12)
Type: cell-based
Experimental: This test was done side by side in flasks (0.1 L) and in reactors located in a greenhouse operating in conditions: reactor volume of 230 L; Daily PAR of 20 mol m^−2 d^−1; pH (not measured); and paddlewheel speed of 21 RPM. […] The flask cultures were mixed by shaking at 140 rpm and received 300-400 μmol/m^2 s of photosynthetically active radiation (PAR) in 12 hour light cycles and constant supply of 2.5% CO2. The motility of the culture was monitored by visual observation under a microscope. […] Nine 230 L reactors were also seeded with culture from bioreactor #2410 on the same day as the flasks and brought to 2 ppt concentration of salt. Once motility of the cells was reduced to <10% (day 3 of culture for flasks and day 2 for 230 L reactors) the level of salt was elevated to a point between 4-18 ppt and compared to the culture in two reactors remaining at 2 ppt salt. Flasks and 230 L reactors were monitored for percentage of cell lysis via visual observation under a microscope, culture dry weight (biomass accumulation in g/L), and percentage of chytrid infection via visual observation under a microscope. Carotenoid production, a proxy for determining astaxanthin, was quantified every other day of culture in the 230 L reactors using the UV method.

[Cl-].[Na+] [NaCl, sodium chloride]
Culture Dry Weight in 230L reactors (NaCl 2 ppt (1st 2 ppt column), time 12 d): 0.187 g/L | Culture Dry Weight in 230L reactors (NaCl 2 ppt, time 0 d): 0.043 g/L | Culture Dry Weight in 230L reactors (NaCl 2 ppt, time 1 d): 0.048 g/L | Culture Dry Weight in 230L reactors (NaCl 2 ppt, time 2 d): 0.072 g/L | Culture Dry Weight in 230L reactors (NaCl 2 ppt, time 4 d): 0.113 g/L | Culture Dry Weight in 230L reactors (NaCl 2 ppt, time 5 d): 0.125 g/L | Culture Dry Weight in 230L reactors (NaCl 2 ppt, time 6 d): 0.130 g/L | Culture Dry Weight in 230L reactors (NaCl 2 ppt, time 7 d): 0.150 g/L | Culture Dry Weight in 230L reactors (NaCl 2 ppt, time 8 d): 0.170 g/L | Culture Dry Weight in 230L reactors (NaCl 2 ppt, time 9 d): 0.218 g/L | Culture Dry Weight in 230L reactors (NaCl 2 ppt, time 10 d): 0.150 g/L | Culture Dry Weight in 230L reactors (NaCl 4 ppt, time 0 d): 0.037 g/L | Culture Dry Weight in 230L reactors (NaCl 4 ppt, time 1 d): 0.063 g/L | Culture Dry Weight in 230L reactors (NaCl 4 ppt, time 2 d): 0.080 g/L | Culture Dry Weight in 230L reactors (NaCl 4 ppt, time 4 d): 0.115 g/L | Culture Dry Weight in 230L reactors (NaCl 4 ppt, time 5 d): 0.120 g/L | Culture Dry Weight in 230L reactors (NaCl 4 ppt, time 6 d): 0.125 g/L | Culture Dry Weight in 230L reactors (NaCl 4 ppt, time 7 d): 0.148 g/L | Culture Dry Weight in 230L reactors (NaCl 4 ppt, time 8 d): 0.153 g/L | Culture Dry Weight in 230L reactors (NaCl 4 ppt, time 9 d): 0.198 g/L | Culture Dry Weight in 230L reactors (NaCl 4 ppt, time 10 d): 0.143 g/L | Culture Dry Weight in 230L reactors (NaCl 4 ppt, time 11 d): 0.148 g/L | Culture Dry Weight in 230L reactors (NaCl 4 ppt, time 12 d): 0.150 g/L | Culture Dry Weight in 230L reactors (NaCl 5 ppt, time 0 d): 0.040 g/L | Culture Dry Weight in 230L reactors (NaCl 5 ppt, time 1 d): 0.070 g/L | Culture Dry Weight in 230L reactors (NaCl 5 ppt, time 4 d): 0.162 g/L | Culture Dry Weight in 230L reactors (NaCl 5 ppt, time 5 d): 0.185 g/L | Culture Dry Weight in 230L reactors (NaCl 5 ppt, time 6 d): 0.213 g/L | Culture Dry Weight in 230L reactors (NaCl 5 ppt, time 7 d): 0.223 g/L | Culture Dry Weight in 230L reactors (NaCl 5 ppt, time 8 d): 0.270 g/L | Culture Dry Weight in 230L reactors (NaCl 5 ppt, time 9 d): 0.293 g/L | Culture Dry Weight in 230L reactors (NaCl 5 ppt, time 10 d): 0.265 g/L | Culture Dry Weight in 230L reactors (NaCl 5 ppt, time 11 d): 0.250 g/L | Culture Dry Weight in 230L reactors (NaCl 5 ppt, time 12 d): 0.280 g/L | Culture Dry Weight in 230L reactors (NaCl 6 ppt, time 0 d): 0.040 g/L | Culture Dry Weight in 230L reactors (NaCl 6 ppt, time 1 d): 0.058 g/L | Culture Dry Weight in 230L reactors (NaCl 6 ppt, time 4 d): 0.140 g/L | Culture Dry Weight in 230L reactors (NaCl 6 ppt, time 5 d): 0.178 g/L | Culture Dry Weight in 230L reactors (NaCl 6 ppt, time 6 d): 0.198 g/L | Culture Dry Weight in 230L reactors (NaCl 6 ppt, time 7 d): 0.218 g/L | Culture Dry Weight in 230L reactors (NaCl 6 ppt, time 8 d): 0.260 g/L | Culture Dry Weight in 230L reactors (NaCl 6 ppt, time 9 d): 0.260 g/L | Culture Dry Weight in 230L reactors (NaCl 6 ppt, time 10 d): 0.250 g/L | Culture Dry Weight in 230L reactors (NaCl 6 ppt, time 11 d): 0.282 g/L | Culture Dry Weight in 230L reactors (NaCl 6 ppt, time 12 d): 0.323 g/L | Culture Dry Weight in 230L reactors (NaCl 7 ppt, time 0 d): 0.035 g/L | Culture Dry Weight in 230L reactors (NaCl 7 ppt, time 1 d): 0.048 g/L | Culture Dry Weight in 230L reactors (NaCl 7 ppt, time 4 d): 0.145 g/L | Culture Dry Weight in 230L reactors (NaCl 7 ppt, time 5 d): 0.150 g/L | Culture Dry Weight in 230L reactors (NaCl 7 ppt, time 6 d): 0.170 g/L | Culture Dry Weight in 230L reactors (NaCl 7 ppt, time 7 d): 0.198 g/L | Culture Dry Weight in 230L reactors (NaCl 7 ppt, time 8 d): 0.260 g/L | Culture Dry Weight in 230L reactors (NaCl 7 ppt, time 9 d): 0.148 g/L | Culture Dry Weight in 230L reactors (NaCl 7 ppt, time 10 d): 0.205 g/L | Culture Dry Weight in 230L reactors (NaCl 7 ppt, time 11 d): 0.218 g/L | Culture Dry Weight in 230L reactors (NaCl 7 ppt, time 12 d): 0.245 g/L | Culture Dry Weight in 230L reactors (NaCl 8 ppt, time 0 d): 0.018 g/L | Culture Dry Weight in 230L reactors (NaCl 8 ppt, time 1 d): 0.057 g/L | Culture Dry Weight in 230L reactors (NaCl 8 ppt, time 4 d): 0.145 g/L | Culture Dry Weight in 230L reactors (NaCl 8 ppt, time 5 d): 0.168 g/L | Culture Dry Weight in 230L reactors (NaCl 8 ppt, time 6 d): 0.193 g/L | Culture Dry Weight in 230L reactors (NaCl 8 ppt, time 7 d): 0.205 g/L | Culture Dry Weight in 230L reactors (NaCl 8 ppt, time 8 d): 0.237 g/L | Culture Dry Weight in 230L reactors (NaCl 8 ppt, time 9 d): 0.218 g/L | Culture Dry Weight in 230L reactors (NaCl 8 ppt, time 10 d): 0.257 g/L | Culture Dry Weight in 230L reactors (NaCl 8 ppt, time 11 d): 0.220 g/L | Culture Dry Weight in 230L reactors (NaCl 8 ppt, time 12 d): 0.263 g/L | Culture Dry Weight in 230L reactors (NaCl 10 ppt, time 0 d): 0.045 g/L | Culture Dry Weight in 230L reactors (NaCl 10 ppt, time 1 d): 0.060 g/L | Culture Dry Weight in 230L reactors (NaCl 10 ppt, time 4 d): 0.120 g/L | Culture Dry Weight in 230L reactors (NaCl 10 ppt, time 5 d): 0.130 g/L | Culture Dry Weight in 230L reactors (NaCl 10 ppt, time 6 d): 0.168 g/L | Culture Dry Weight in 230L reactors (NaCl 10 ppt, time 7 d): 0.145 g/L | Culture Dry Weight in 230L reactors (NaCl 10 ppt, time 8 d): 0.145 g/L | Culture Dry Weight in 230L reactors (NaCl 10 ppt, time 9 d): 0.160 g/L | Culture Dry Weight in 230L reactors (NaCl 10 ppt, time 10 d): 0.173 g/L | Culture Dry Weight in 230L reactors (NaCl 10 ppt, time 11 d): 0.145 g/L | Culture Dry Weight in 230L reactors (NaCl 10 ppt, time 12 d): 0.168 g/L | Culture Dry Weight in 230L reactors (NaCl 18 ppt, time 0 d): 0.035 g/L | Culture Dry Weight in 230L reactors (NaCl 18 ppt, time 1 d): 0.052 g/L | Culture Dry Weight in 230L reactors (NaCl 18 ppt, time 4 d): 0.135 g/L | Culture Dry Weight in 230L reactors (NaCl 18 ppt, time 5 d): 0.173 g/L | Culture Dry Weight in 230L reactors (NaCl 18 ppt, time 6 d): 0.180 g/L | Culture Dry Weight in 230L reactors (NaCl 18 ppt, time 7 d): 0.165 g/L | Culture Dry Weight in 230L reactors (NaCl 18 ppt, time 8 d): 0.165 g/L | Culture Dry Weight in 230L reactors (NaCl 18 ppt, time 9 d): 0.175 g/L | Culture Dry Weight in 230L reactors (NaCl 18 ppt, time 10 d): 0.183 g/L | Culture Dry Weight in 230L reactors (NaCl 18 ppt, time 11 d): 0.200 g/L | Culture Dry Weight in 230L reactors (NaCl 18 ppt, time 12 d): 0.175 g/L
